According to PubChem BioAssay AID2060910 (Molecular Pharmacology Branch, DTP, NCI, 2025):

Tested on: 242566-281-R-J2-PDC complex spheroid viability
Assay: Anticancer human tumor 242566-281-R-J2-PDC patient-derived pancreatic carcinoma cell line growth inhibition [RAS]
Conditions: for IC50: curve of first compound; for viability, T/C: stronger effect = lower value; active = viability on the fitted dose curve at most 10% of control; inactive = the rest
In short: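 Multi-cell-type spheroids: tumor cells plus HUVEC endothelial cells and mesenchymal stem cells. RAS-pathway inhibitors were combined with targeted agents, each dosed in half-log steps down from clinical Cmax, or from 10 microM when Cmax was unknown.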

[1] = second compound 0.000949 µM, first compound 0.0316 µM
[2] = second compound 0.000949 µM, first compound 0.1 µM
[3] = second compound 0.000949 µM, first compound 0.316 µM
[4] = second compound 0.000949 µM, first compound 1 µM
[5] = second compound 0.000949 µM, first compound 3.16 µM
[6] = second compound 0.000949 µM, first compound 10 µM
[7] = second compound 0.003 µM, first compound 0.0316 µM
[8] = second compound 0.003 µM, first compound 0.1 µM
[9] = second compound 0.003 µM, first compound 0.316 µM
[10] = second compound 0.003 µM, first compound 1 µM
[11] = second compound 0.003 µM, first compound 3.16 µM
[12] = second compound 0.003 µM, first compound 10 µM
[13] = second compound 0.00949 µM, first compound 0.0316 µM
[14] = second compound 0.00949 µM, first compound 0.1 µM
[15] = second compound 0.00949 µM, first compound 0.316 µM
[16] = second compound 0.00949 µM, first compound 1 µM
[17] = second compound 0.00949 µM, first compound 3.16 µM
[18] = second compound 0.00949 µM, first compound 10 µM
[19] = second compound 0.03 µM, first compound 0.0316 µM
[20] = second compound 0.03 µM, first compound 0.1 µM
[21] = second compound 0.03 µM, first compound 0.316 µM
[22] = second compound 0.03 µM, first compound 1 µM
[23] = second compound 0.03 µM, first compound 3.16 µM
[24] = second compound 0.03 µM, first compound 10 µM
[25] = second compound 0.0949 µM, first compound 0.0316 µM
[26] = second compound 0.0949 µM, first compound 0.1 µM
[27] = second compound 0.0949 µM, first compound 0.316 µM
[28] = second compound 0.0949 µM, first compound 1 µM
[29] = second compound 0.0949 µM, first compound 3.16 µM
[30] = second compound 0.0949 µM, first compound 10 µM
[31] = second compound 0.3 µM, first compound 0.0316 µM
[32] = second compound 0.3 µM, first compound 0.1 µM
[33] = second compound 0.3 µM, first compound 0.316 µM
[34] = second compound 0.3 µM, first compound 1 µM
[35] = second compound 0.3 µM, first compound 3.16 µM
[36] = second compound 0.3 µM, first compound 10 µM
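Note: spheroids exposed to compound for 7 days before readout.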
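Throughout, for viability, T/C: 100% = DMSO vehicle control wells.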

CC(=O)OC12COC1CC(O)C1(C)C(=O)C(O)C3=C(C)C(OC(=O)C(O)C(NC(=O)OC(C)(C)C)c4ccccc4)CC(O)(C(OC(=O)c4ccccc4)C21)C3(C)C (centres undefined) + CCn1c(-c2cc(N3CCN(C)CC3)cnc2C(C)OC)c2c3cc(ccc31)-c1csc(n1)CC(NC(=O)C1CC1C)C(=O)N1CCCC(N1)C(=O)OCC(C)(C)C2
inactive: viability, T/C [1] 38.4% | viability, T/C [2] 32.3% | viability, T/C [3] 21.8% | viability, T/C [4] 32.2% | viability, T/C [5] 31.9% | viability, T/C [6] 27.6% | viability, T/C [7] 34.2% | viability, T/C [8] 23.3% | viability, T/C [9] 22.6% | viability, T/C [10] 26.7% | viability, T/C [11] 32.5% | viability, T/C [12] 25.2% | viability, T/C [13] 26% | viability, T/C [14] 19% | viability, T/C [15] 21.9% | viability, T/C [16] 20.2% | viability, T/C [17] 20.9% | viability, T/C [18] 16.8% | viability, T/C [19] 19.1% | viability, T/C [20] 16.3% | viability, T/C [21] 17.9% | viability, T/C [22] 19% | viability, T/C [23] 11.6% | viability, T/C [24] 10% | viability, T/C [25] 11.7% | viability, T/C [26] 11.9% | viability, T/C [27] 13.4%
< 31.6 nM: IC50 (second compound 0.000949 µM) | IC50 (second compound 0.003 µM) | IC50 (second compound 0.00949 µM) | IC50 (second compound 0.03 µM) | IC50 (second compound 0.0949 µM) | IC50 (second compound 0.3 µM)
active: viability, T/C [28] 10.5% | viability, T/C [29] 6.83% | viability, T/C [30] 6.76% | viability, T/C [31] 9.32% | viability, T/C [32] 9.15% | viability, T/C [33] 7.89% | viability, T/C [34] 8.09% | viability, T/C [35] 7.91% | viability, T/C [36] 6.31%

CCC(CC)c1cc(NC2CCC(N)C2)n2nccc2n1 (centres undefined) + CCn1c(-c2cc(N3CCN(C)CC3)cnc2C(C)OC)c2c3cc(ccc31)-c1csc(n1)CC(NC(=O)C1CC1C)C(=O)N1CCCC(N1)C(=O)OCC(C)(C)C2
2620 nM: IC50 (second compound 0.000949 µM)
< 31.6 nM: IC50 (second compound 0.00949 µM) | IC50 (second compound 0.03 µM) | IC50 (second compound 0.0949 µM) | IC50 (second compound 0.3 µM)
inactive: viability, T/C [1] 90.9% | viability, T/C [2] 88.3% | viability, T/C [3] 77.8% | viability, T/C [4] 90.1% | viability, T/C [5] 42.9% | viability, T/C [7] 80.1% | viability, T/C [8] 74.2% | viability, T/C [9] 65.4% | viability, T/C [10] 74.9% | viability, T/C [11] 35.5% | viability, T/C [13] 50.9% | viability, T/C [14] 39.1% | viability, T/C [15] 45.9% | viability, T/C [16] 45.8% | viability, T/C [17] 18.8% | viability, T/C [19] 32.2% | viability, T/C [20] 29.8% | viability, T/C [21] 27.9% | viability, T/C [22] 29.8% | viability, T/C [23] 7.89% | viability, T/C [25] 22.3% | viability, T/C [26] 21% | viability, T/C [27] 23.2% | viability, T/C [28] 24.5% | viability, T/C [29] 8.03% | viability, T/C [31] 20.7% | viability, T/C [32] 19.7% | viability, T/C [33] 20.5% | viability, T/C [34] 20.9%
2040 nM: IC50 (second compound 0.003 µM)
active: viability, T/C [6] 1.28% | viability, T/C [12] 1.04% | viability, T/C [18] 1.43% | viability, T/C [24] 2.28% | viability, T/C [30] 1.49% | viability, T/C [35] 6.77% | viability, T/C [36] 1.47%
